101 molecules from PubChem BioAssay AID608 (Sanford-Burnham Center for Chemical Genomics, 2007) can be followed below.

Activity calls are given as the source filed them. The rule behind the calls is not given here. A value given as a limit tells only on which side of the number the result lay.

Peptidyl-prolyl cis-trans isomerase FKBP1A (Homo sapiens), sequence (P62942 whole entry, looked up): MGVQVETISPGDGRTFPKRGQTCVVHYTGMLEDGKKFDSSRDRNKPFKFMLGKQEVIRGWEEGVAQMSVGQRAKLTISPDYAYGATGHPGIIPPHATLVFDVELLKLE

This test has as its target Peptidyl-prolyl cis-trans isomerase FKBP1A (Homo sapiens) (UniProt P62942). As to the kind of experiment: small-molecule binding to FKBP12 – biophysical, NMR detection (AID 608). Conditions: purified FKBP12.
On to `CN(C)S(=O)(=O)c1ccccc1C#N`, for which the Kd was > 4 mM (inactive).
Next, `O=S1(=O)CCC(NCCO)C1` (stereo unspecified): > 4 mM (inactive).
Regarding `CC1(C)CC[C@]2(C(=O)O)CC[C@]3(C)C(=CCC4[C@@]5(C)CC[C@@H](O)C(C)(C)C5CC[C@]43C)C2C1` (stereo partly specified), the Kd is > 4 mM (inactive).
Next, `COc1ccc2[nH]c(O)c(NC(C)=O)c2c1`: > 4 mM (inactive); `c1ccc(-n2nnnc2-n2cnc3ccccc32)cc1`: > 4 mM (inactive).
Regarding `Clc1ccc(-c2nnc3ccccn23)cc1`, the Kd was > 4 mM (inactive).
For `Cc1cc(C(=O)NC(C)c2ccncc2)cs1` (stereo unspecified), the Kd is > 4 mM (inactive).
With `C=CCc1ccc(O)c(OC)c1`, the Kd is > 4 mM (inactive).
As to `O=C(O)c1cn(-c2ccccc2)nc1-c1ccncc1`, the Kd was > 4 mM (inactive).
Next, `CS(=O)(=O)c1cccc(C(=O)Nc2nccs2)c1`: > 4 mM (inactive); `Cc1cc(NC(=O)NCCCSc2nncn2C)no1`: > 4 mM (inactive); `CCN1CCC(NC2CCCCNC2=O)CC1` (stereo unspecified): > 4 mM (inactive).
`N#CCSc1nnc2ccc3ccccc3n12`: the Kd is > 4 mM (inactive).
Turning to `Cc1oc(-c2ccccc2)cc1C(=O)O`, the Kd was > 4 mM (inactive).
For `CCOC(=O)CNc1ncnc2c1nnn2CC`, the Kd is > 4 mM (inactive).
For `COc1cc(OC)c2c(=O)c(-c3ccccc3)coc2c1` the value was > 4 mM (inactive); for `O=C(NCc1ccc2c(c1)OCO2)c1cccs1`, > 4 mM (inactive); for `O=C(c1cc2ccccc2o1)N1CCCCCC1`, 0.184 mM.
On to `O=c1c(O)cc([C@H]2Oc3cc(O)cc(O)c3C[C@H]2O)cc2c([C@H]3Oc4cc(O)cc(O)c4C[C@H]3O)cc(O)c(O)c12`, for which the Kd is > 4 mM (inactive).
In the case of `CCOC(=O)c1nc2ccccc2c(=O)n1N`, the Kd is > 4 mM (inactive).
For the molecule `Cc1nnc(Nc2ccc(S(N)(=O)=O)cc2)[nH]c1=O`, the Kd is > 4 mM (inactive).
Next, `c1csc(-c2nnc3ccccn23)c1`: > 4 mM (inactive).
For `O=C(O)c1cnc2n(c1=O)CCS2` the value was > 4 mM (inactive); for `COc1ccccc1-c1noc(-c2ccncc2)n1`, > 4 mM (inactive); for `N#Cc1c(N)c(C(=O)c2ccccc2)n2c1CCC2`, > 4 mM (inactive).
Next, `O=C(NCc1cccs1)c1nc2ncccn2n1`: > 4 mM (inactive); `CNCc1ccccc1`: > 4 mM (inactive); `CC(=O)c1cc(C)ccc1OC(=O)c1cccnc1`: > 4 mM (inactive).
For the molecule `CN1CCN(C2CCN(Cc3ccccc3)CC2)CC1`, the Kd was > 4 mM (inactive).
Next, `C[N+](C)(C)CC(O)CC(=O)O` (stereo unspecified): > 4 mM (inactive).
For `O=C(O)CNCC(O)Cn1c2ccccc2c2ccccc21` (stereo unspecified) the value was > 4 mM (inactive); for `COC(=O)C[C@H]1C2(C)CC34OC5(C)O[C@@]6([C@H](OC(C)=O)C(OC(C)=O)[C@]7(C)C(/C(=C(/O)C(C)C)C(=O)O[C@H]7c7ccoc7)[C@@]6(O5)[C@H](OC(C)=O)[C@@]3(O)C2OC(=O)C(C)C)[C@]14C` (stereo partly specified), > 4 mM (inactive).
Next, `O=C(O)c1cnc2sc3ccccc3n2c1=O`: > 4 mM (inactive).
In the case of `O=[n+]1cc(C2=CC=CCC2)n([O-])c2c1CCCCC2`, the Kd is > 4 mM (inactive).
Consider `CN1CCn2c1nc(N1CCOCC1)nc2=O`, for which the Kd was > 4 mM (inactive).
With `Cc1cccc(N2C(=O)CC(=O)NC2=O)c1`, the Kd was > 4 mM (inactive).
Next, `COc1ccc(/C=C2/NC(=S)NC2=O)cc1`: > 4 mM (inactive); `O=C(CCc1ccc(O)cc1)c1c(O)cc(O)cc1O`: > 4 mM (inactive); `NC(=O)c1ccc(-c2ccccn2)s1`: > 4 mM (inactive).
Next, `CC(=O)c1cnc(Nc2nc(C)c3ccccc3n2)nc1C`: > 4 mM (inactive); `CCOC(=O)c1cnc2n(c1=O)CCS2`: > 4 mM (inactive).
Next, `NCCc1cnc[nH]1`: > 4 mM (inactive); `C/C=C/C(=O)Nc1ccc(NC(C)=O)cc1`: > 4 mM (inactive); `C/C=C(/C)C(=O)O[C@@H]1Cc2c(ccc3ccc(=O)oc23)OC1(C)C`: > 4 mM (inactive).
Regarding `O=C(O)/C=C1\NC(=O)c2ccccc21`, the Kd is > 4 mM (inactive).
Next, `NC(=O)c1ccc(C(N)=O)c(-c2ccccc2)c1`: > 4 mM (inactive); `COCc1cc(Cl)nc(-c2csc(C)n2)n1`: > 4 mM (inactive).
For `Cc1[nH]n(-c2ccccc2)c(=O)c1[N+](=O)[O-]` the value was > 4 mM (inactive); for `Cn1c2c(c(=O)n(C)c1=O)CN(Cc1ccco1)CN2`, > 4 mM (inactive).
Next, `Cc1ccc(NS(=O)(=O)N2CCOCC2)cc1Cl`: “inactive”; `O=C(/C=C/c1ccco1)NC1=NCCS1`: > 4 mM (inactive); `O=C(O)C1NCCc2ccccc21` (stereo unspecified): > 4 mM (inactive).
For `N#Cc1cc2ccccc2nc1N`, the Kd is > 4 mM (inactive).
For `Cc1cc(NC(=O)c2ccc3c(c2)OCCO3)no1`, the Kd was > 4 mM (inactive).
Next, `C=C1C2CC[C@@]3(C)[C@H](c4ccoc4)OC(=O)C[C@]13O[C@H]1CC(O)C(C)(C)C(CC(=O)OC)[C@@]21C` (stereo partly specified): > 4 mM (inactive); `C=CCNC(=O)c1nn2cccnc2c1Cl`: > 4 mM (inactive).
For `CCn1nnnc1Oc1ccc(Cl)cc1` the value was > 4 mM (inactive); for `O=C(c1ccccc1)N1CCOCC1`, > 4 mM (inactive).
For `C/C=C(\C)c1nnc(NC(=O)c2ccco2)s1`, the Kd was > 4 mM (inactive).
Next, `Cc1nc(SCC(=O)c2c[nH]c3ccccc23)n[nH]1`: “inactive”; `C=C(C)CSc1nc2nc(C)cc(C)n2n1`: > 4 mM (inactive).
Next, `NC1=NC(=O)/C(=C/c2cccc([N+](=O)[O-])c2)S1`: > 4 mM (inactive); `NC(=O)c1cc(Cl)c(C(N)=O)cc1Cl`: > 4 mM (inactive).
`Cc1ccc(C(=O)NC2=NCCS2)o1`: the Kd is > 4 mM (inactive).
Next, `C=C1C([C@]2(C)C(CC(=O)OC)[C@@](C)(COC(C)=O)OC(=O)C[C@@H]2OC(C)=O)[C@@H](OC=O)[C@H](OC(=O)C(OC(C)=O)C(C)CC)[C@@]2(C)[C@H](c3ccoc3)CC(=O)C12O` (stereo partly specified): > 4 mM (inactive); `Cn1nnc2cc(C(=O)N3CCSCC3)ccc21`: > 4 mM (inactive).
`Cc1cc(NC(=O)c2cccc(S(C)(=O)=O)c2)no1`: the Kd was > 4 mM (inactive).
For `O=C(O)CCn1c(=O)oc2ccccc21` the value was > 4 mM (inactive); for `CC(=O)O[C@H]1C[C@@H](OC(C)=O)C(C)(C)C2CC(=O)[C@]3(C)C(CC[C@@]4(C)[C@H](c5ccoc5)OC(=O)[C@H]5O[C@]543)[C@]21C` (stereo partly specified), > 4 mM (inactive); for `COc1ccc(C2=CC(=O)C=CC2=O)cc1`, > 4 mM (inactive).
On to `O=C(O)c1ccc(CN2CCOCC2)cc1`, for which the Kd was > 4 mM (inactive).
For `O=C(O)CSc1cccc2cccnc12` the value was > 4 mM (inactive); for `NC(=O)CSc1ccccn1`, > 4 mM (inactive).
As for `CC(=O)O[C@@H]1CC2C(C)(C)CCC(=O)[C@]2(C)C2CC[C@@]3(C)[C@H](c4ccoc4)OC(=O)C4OC43[C@@]21C` (stereo partly specified), the Kd was > 4 mM (inactive).
For `Cc1ccc(C(O)c2nccn2C)o1` (stereo unspecified) the value was > 4 mM (inactive); for `O=c1[nH]c(=S)c2c(n1-c1ccccc1)CCC2`, > 4 mM (inactive); for `COc1ccc(C(=O)NNC(=S)NC(C)=O)cc1`, > 4 mM (inactive).
For `COc1cc2c(cc1-c1cc3cc4ccoc4cc3oc1=O)OCO2` the value was > 4 mM (inactive).
With `CCC(=O)NC(=S)Nc1ccc(C(N)=O)cc1`, the Kd was > 4 mM (inactive).
For `CC(=O)NS(=O)(=O)c1ccc(C)cc1` the value was > 4 mM (inactive); for `CCc1cc2c(SCC(=O)O)ncnc2s1`, > 4 mM (inactive).
For `Cc1nn(-c2ccccc2C(=O)O)c(=O)c2ccccc12`, the Kd is > 4 mM (inactive).
Turning to `Cc1cc(O)cc(O)c1C(=O)O`, the Kd is > 4 mM (inactive).
As for `CCn1cnc2scc(-c3ccccc3)c2c1=O`, the Kd is > 4 mM (inactive).
On to `Cc1onc(-c2ccccc2)c1C(=O)O`, for which the Kd was > 4 mM (inactive).
For `COc1c(C(=O)N2CCCC2)ccc2ccccc12` the value was > 4 mM (inactive).
On to `CCOC(=O)Nc1ccc2c(C)cc(=O)oc2c1`, for which the Kd was > 4 mM (inactive).
Next, `COc1ccccc1NC(=O)c1cc[n+]([O-])cc1`: > 4 mM (inactive); `O=S(=O)(Nc1cc(Cl)cc(Cl)c1)N1CCCCC1`: “inactive”.
Next, `Cc1nnc(SCC(=O)NCc2ccccc2)[nH]c1=O`: > 4 mM (inactive); `COc1cc(OC)c2c(=O)c(OC)c(-c3ccc(OC)c(OC)c3)oc2c1`: > 4 mM (inactive).
In the case of `CC(=O)Nc1nnc(-c2ccccc2)o1`, the Kd is > 4 mM (inactive).
For the molecule `Cc1cc(-c2ccc(Cl)cc2)n2nc(N)nc2n1`, the Kd was > 4 mM (inactive).
Next, `NC(=O)CN1CCCCCC1=O`: > 4 mM (inactive).
For `COc1ccc2nc(N)sc2n1` the value was > 4 mM (inactive); for `Fc1ccc(-c2n[nH]c(=S)n2CC2CCCO2)cc1` (stereo unspecified), > 4 mM (inactive); for `OCc1cc(F)cc2c1OCOC2`, > 4 mM (inactive).
In the case of `O=C(CSc1ncn[nH]1)c1ccccc1`, the Kd was > 4 mM (inactive).
In the case of `S=c1[nH]nc(-c2cccnc2)n1Cc1ccccc1`, the Kd was > 4 mM (inactive).
For `Cc1ccc(OCC(=O)N2CCOCC2)cc1C` the value was “inactive”.
Next, `O=c1[nH]c(=O)n(-c2ccc(F)cc2)c(O)c1/C=C1/C=CC=N1`: > 4 mM (inactive).
